Like-named read-outs stand apart in the source and are kept apart here. One block for each compound: values may come before it.
Target: T1, IRAK4 (Homo sapiens, UniProt Q9NWZ3)
T1 construct: Degradation of IRAK4 in OCI-LY10 was quantitatively measured using Meso Scale Discovery technology; endogenous in cells; host or cells: OCI-LY10
T1 sequence (Q9NWZ3 1-460): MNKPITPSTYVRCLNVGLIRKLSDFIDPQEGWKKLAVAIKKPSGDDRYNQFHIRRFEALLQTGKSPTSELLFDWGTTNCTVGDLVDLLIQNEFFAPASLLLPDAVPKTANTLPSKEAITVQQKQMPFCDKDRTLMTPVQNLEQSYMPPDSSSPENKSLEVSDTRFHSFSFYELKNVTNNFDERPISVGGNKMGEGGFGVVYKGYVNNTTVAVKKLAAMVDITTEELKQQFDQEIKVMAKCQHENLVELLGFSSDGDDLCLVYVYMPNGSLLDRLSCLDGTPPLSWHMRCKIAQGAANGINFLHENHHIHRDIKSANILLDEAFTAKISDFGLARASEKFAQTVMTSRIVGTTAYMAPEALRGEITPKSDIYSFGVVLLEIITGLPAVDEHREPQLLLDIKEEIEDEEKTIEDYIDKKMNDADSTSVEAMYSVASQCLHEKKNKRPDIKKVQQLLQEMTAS
Assay: IRAK4 MSD Degradation in OCI-LY10
Type: cell-based
Settings: OCI-LY10 cells, MSD
Outline: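 OCI-LY10 cells exposed to 8-point 1:3 compound series (top 1 to 10 μM) for 4 to 24 h at 37 °C, 5% CO2. Lysate IRAK4 quantified by MSD sandwich immunoassay. DC50 from three-parameter logistic fit, binned A (<0.01 μM) to D (>0.2 μM or not tested).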

[1] = 4 hrs incubation, read-out: IRAK4 degradation in OCI-LY10 at 4 hrs: DC50
[2] = 24 hrs incubation, read-out: IRAK4 degradation in OCI-LY10 at 24 hrs: DC50

SMILES: Cn1c(=O)n(C2CCC(=O)NC2=O)c2cccc(C#CCN3CCN(C[C@H]4CC[C@H](n5cc(NC(=O)c6cnn7ccc(N8CCOCC8)nc67)c(C(F)F)n5)CC4)CC3)c21 (stereo partly drawn) [I-98]
DC50 [1]: < 10 nM
DC50 [2]: > 200 nM

SMILES: Cn1c(=O)n(C2CCC(=O)NC2=O)c2cccc(N3CCN([C@H]4CCN(C[C@H]5CC[C@H](n6cc(NC(=O)c7cnn8ccc(N9C[C@H]%10C[C@@H]9CO%10)nc78)c(C(F)F)n6)CC5)CC4(F)F)CC3)c21 (stereo partly drawn) [I-366]
DC50 [1]: > 200 nM
DC50 [2]: > 200 nM

SMILES: Cn1c(=O)n(C2CCC(=O)NC2=O)c2cccc(C#CCN3CCN(C[C@H]4CC[C@H](n5cc(NC(=O)c6cnn7ccc(N8CC[C@]9(CCOC9)C8)nc67)c(C(F)F)n5)CC4)CC3)c21 (stereo partly drawn) [I-418]
DC50 [1]: 10 to 100 nM
DC50 [2]: > 200 nM

SMILES: COc1cc2nc([C@H]3CC[C@H](CN4CCC5(CC4)CCN(c4cccc6c4n(C)c(=O)n6C4CCC(=O)NC4=O)CC5)CC3)sc2cc1NC(=O)c1cncc(C#N)c1 (stereo partly drawn) [I-94]
DC50 [1]: > 200 nM
DC50 [2]: > 200 nM

SMILES: Cn1c(=O)n(C2CCC(=O)NC2=O)c2cccc(C#CCN3CCN(C[C@H]4CC[C@H](n5cc(NC(=O)c6cnn7ccc(N8CCNCC8)nc67)c(C(F)F)n5)CC4)CC3)c21 (stereo partly drawn) [I-299]
DC50 [1]: > 200 nM
DC50 [2]: < 10 nM

SMILES: Cc1ccc(-c2nn([C@H]3CC[C@H](CN4CCN(CC#Cc5cccc6c5n(C)c(=O)n6C5CCC(=O)NC5=O)CC4)CC3)cc2NC(=O)c2cnn3cccnc23)nc1 (stereo partly drawn) [I-113]
DC50 [1]: > 200 nM
DC50 [2]: < 10 nM

SMILES: C[C@@H]1C[C@@H](OCC#Cc2cccc3c2n(C)c(=O)n3C2CCC(=O)NC2=O)CCN1C[C@H]1CC[C@H](n2cc(NC(=O)c3cnn4ccc(N5C[C@H]6C[C@@H]5CO6)nc34)c(C(F)F)n2)CC1 (stereo partly drawn) [I-33]
DC50 [1]: < 10 nM
DC50 [2]: > 200 nM

SMILES: Cn1c(=O)n(C2CCC(=O)NC2=O)c2cccc(N3CCN([C@@H]4CCN(C[C@H]5CC[C@H](n6cc(NC(=O)c7cnn8ccc(N9C[C@H]%10C[C@@H]9CO%10)nc78)c(C(F)F)n6)CC5)C[C@@H]4F)CC3)c21 (stereo partly drawn) [I-679]
DC50 [1]: > 200 nM
DC50 [2]: < 10 nM

SMILES: Cn1c(=O)n(C2CCC(=O)NC2=O)c2cccc(N3CC(O[C@H]4CCN(C[C@H]5CC[C@H](n6cc(NC(=O)c7cnn8ccc(N9C[C@H]%10C[C@@H]9CO%10)nc78)c(C(F)F)n6)CC5)C[C@@H]4F)C3)c21 (stereo partly drawn) [I-583]
DC50 [1]: > 200 nM
DC50 [2]: > 200 nM

SMILES: C[C@H]1CN(c2ccn3ncc(C(=O)Nc4cn([C@H]5CC[C@H](CN(C)C6CN(c7cccc8c7n(C)c(=O)n8C7CCC(=O)NC7=O)C6)CC5)nc4C(F)F)c3n2)CCO1 (stereo partly drawn) [I-603]
DC50 [1]: > 200 nM
DC50 [2]: > 200 nM

The remaining lines, values ahead:

DC50 [1]: > 200 nM
DC50 [2]: > 200 nM
SMILES: Cn1c(=O)n(C2CCC(=O)NC2=O)c2cccc(N3CCC(N4CCn5cc(-n6cc(NC(=O)c7cnn8cccnc78)c(C(F)F)n6)cc5C4)CC3)c21 (stereo not drawn) [I-416]

DC50 [1]: > 200 nM
DC50 [2]: > 200 nM
SMILES: CN(C[C@H]1CC[C@H](n2cc(NC(=O)c3cnn4ccc(N5CCCC5(C)C)nc34)c(C(F)F)n2)CC1)C1CCN(c2cccc3c2n(C)c(=O)n3C2CCC(=O)NC2=O)CC1(F)F (stereo partly drawn) [I-513]

DC50 [1]: > 200 nM
DC50 [2]: < 10 nM
SMILES: Cc1cccc(C(=O)Nc2cc3cn([C@H]4CC[C@H](CN5CCC(c6cccc7c6n(C)c(=O)n7C6CCC(=O)NC6=O)C(F)(F)C5)CC4)nc3cn2)n1 (stereo partly drawn) [I-614]

DC50 [1]: > 200 nM
DC50 [2]: > 200 nM
SMILES: COc1nc(NC(=O)c2cccc(C)n2)cc2cn([C@H]3CC[C@H](CN4CCC(c5cccc6c5n(C)c(=O)n6C5CCC(=O)NC5=O)C(F)(F)C4)CC3)nc12 (stereo partly drawn) [I-770]

DC50 [1]: > 200 nM
DC50 [2]: > 200 nM
SMILES: Cn1c(=O)n(C2CCC(=O)NC2=O)c2cccc(N3CCC4(CCN(C[C@H]5CC[C@H](n6cc7cc(NC(=O)c8cncc(C#N)c8)c(C(F)F)cc7n6)CC5)CC4)CC3)c21 (stereo partly drawn) [I-187]

DC50 [1]: > 200 nM
DC50 [2]: < 10 nM
SMILES: Cn1c(=O)n(C2CCC(=O)NC2=O)c2cccc(N3CCN(C[C@]4(O)CC[C@@H](n5cc6cc(NC(=O)c7cccc(C(F)(F)F)n7)ccc6n5)CC4)CC3)c21 (stereo partly drawn) [I-684]

DC50 [1]: > 200 nM
DC50 [2]: > 200 nM
SMILES: Cn1c(=O)n(C2CCC(=O)NC2=O)c2cccc(C3=CCN(C[C@H]4CC[C@H](n5cc6cc(NC(=O)c7cccc(C(F)(F)F)n7)c(C(F)F)cc6n5)CC4)CC3(F)F)c21 (stereo partly drawn) [I-456]

DC50 [1]: > 200 nM
DC50 [2]: > 200 nM
SMILES: Cn1c(=O)n(C2CCC(=O)NC2=O)c2cccc(N3CCC(C[C@H]4CC[C@H](n5cc6cc(NC(=O)c7cccc(C(F)(F)F)n7)ncc6n5)CC4)CC3)c21 (stereo partly drawn) [I-777]
